The values that follow come from patent US20030229037A1, “Novel cationic amphiphiles” (priority 2000, published 2003).

The term pKa denotes the negative logarithm of the acid dissociation constant.

Series [1] has as its system COS-7 cells. Put plainly: Transfection of COS-7 cells with lipid/DNA lipoplexes (luciferase reporter plasmid pCMXluc), efficiency relative to DOTAP. As to conditions: for relative transfection efficiency (maximum): COS-7, pCMXluc, cationic lipid/DOPE 1:1, most effective lipid/DNA ratio of 1:1 to 15:1, 48 h, RLU/µg protein based on DOTAP = 100%. Type of series: cell-based, green meerkat. Here is the method: A transfection experiment with cationic lipids can be broken down into four different individual steps. An important prerequisite for the success of a transfection experiment is the successful preparation of liposomes from the lipids to be tested (Step 1). DNA dissolved in buffer is then added to these liposomes, forming lipid/DNA complexes called lipoplexes (Step 2). The lipoplexes are then added to the cells (Step 3). The lipoplexes mediate the uptake of the DNA in the cell. Finally, the success of a transfection is quantified by determining the quantity of gene product forms and any toxicity that may occur is quantified by measuring the quantity of total protein (Step 4).
A reporter plasmid pCMXluc containing 8,600 base pairs (provided by R. Schüle) that codes for the enzyme luciferase was used to manufacture the lipoplexes. The composition of the lipoplexes and especially the proportion of lipid/DNA [Weibel et al., 1995; Felgner et al., 1994] are critical factors for obtaining a high level of protein expression. The number of negative charges of the plasmid used (one negatively-charged phosphate group per base) and the number of positive charges caused by adding cationic liposomes were used to calculate the proportion of lipid/DNA. For polycationic lipids, the number of all amino functions contained in the head group was made equal to the number of positive charges per lipid. Eight different lipoplexes with charge ratios from 1:1 to 15:1 were manufactured for each cationic lipid. In this process, each lipoplex received the same quantity of DNA but different quantities of lipid. An overview of the model calculation of various proportions of lipid/DNA is presented below.
After the plasmid (dissolved in buffer) was added to the liposomes, a pipette was used to carefully mix the formulation. It was then allowed to stand at room temperature for 60 minutes to allow the lipoplexes to form. The ripening conditions used here to prepare lipoplexes are based on findings described earlier [Yang and Huang, 1998] and also represent the result of a systematic optimization of lipoplex ripening conditions that were determined using a simple cationic lipid and a tricationic lipid, and which were used here to prepare all lipoplexes [Regelin, 2000].
The COS-7 cell line (kidney cells from the green meerkat, fibroblast-like cells) which is often used in transfection studies [You et al., 1999; Yu et al., 1999] was used for the cell experiments. This cell line is known to be easy to transfect and grows adherently. It was therefore expected that transfection data could be matched up with all synthesized cationic lipids, and that structure/effectiveness relationships could therefore be identified. The cell experiments were carried out in 96-well microtiter plates with 5,000 cells per well. Cell density has a considerable influence on the success of a transfection experiment when COS-7 cells are used [Deshmukh and Huang, 1997]: on the one hand, cells that are sowed too densely are harder to transfect than less densely sowed cells due to their reduced tendency to divide. While it is not the intention of the applicant to be bound to any particular theory, nor to affect in any measure the scope of the appended claims, it is presently believed that the explanation lies in that plasmids pass more easily into the nucleus of dividing cells [Mortimer et al., 1999], because the […] becomes full of holes or is dissolved during cell division. On the other hand, transfections of cells that have a very low cell density are often associated with elevated cytotoxicity, because more lipoplexes are now available per cell. A moderate cell density of 40-50% confluence, at which a sufficient level of cell division is observed, was selected for the transfection experiments to be carried out as part of this work. […]
On the technique in general: Reporter assays use an easily measured gene product as a stand-in for the process of interest.

The conditions of series [2]: amino groups, aqueous solution; literature values; cited from earlier work.
Series [3] can be described thus: Liposome preparation (lipid film hydration, ultrasound) and size distribution by photon correlation spectroscopy. Type of series: physicochemical. As to conditions: equimolar DOPE, HBS buffer pH 7.4, ultrasound bath. Here is the method:
Preferably, the cationic amphiphile and helper lipid are present in a molar mixing ratio of from about five to one to about one to five. More preferably, the cationic amphiphile and helper lipid are present in a molar mixing ratio of from about two to one to about one to two. Still more preferably, the molar mixing ratio of cationic amphiphile to helper lipid is about 1:1. To prepare liposomes, the cationic lipid to be tested and a helper lipid were dissolved in an organic solvent (e.g., chloroform/methanol mixtures).
The lipid films can be hydrated by adding buffer, which also gives rise to multilamellar vesicles (MLV). The MLV are then converted into small unilamellar vesicles (SUV) via ultrasonic treatment. [Moog, 1999; Lasic, 1994 and 1995]. The duration of exposure to ultrasound required until a homogenous population of SUV formed depended on the strength of the ultrasound bath. When a common commercial ultrasound bath was used, the process lasted 15-20 minutes. When a high performance ultrasound bath from Bandelin was used (which is also used to homogenize tissue samples) the same results were obtained after just 2 minutes. All liposomes were characterized by measuring their size distribution using photon correlation spectroscopy. In this process, the sizes of liposomes found were preferably between about 20 and about 200 nm, more preferably between about 50 and about 150 nanometers.
To make the liposome preparation, dissolve 1.29 μmol of the simple cationic lipid to be tested (bicationic: 0.645 μmol, tricationic: 0.43 μmol) in chloroform/methanol (2:1 v/v) in a test tube with an equimolar quantity of DOPE. Use the simple cationic lipid DOTAP without the addition of DOPE.
Slowly blow off the organic solvent with a TCS sample preparation system (Vapotherm, BARLEY, Bielefeld, Germany) using nitrogen (30-60 minutes) at room temperature. The dried lipid films can be stored for many months at −20° C. […]

Series [4] relates to COS-7 cells. As to the kind of experiment: Total protein quantity per well (BCA test) as measure of cytotoxicity of the lipoplexes. As to conditions: COS-7, lipid/DOPE 1:1 lipoplexes, 48 h. It counts as cell-based, green meerkat. The procedure: 48 hours after the lipoplexes were added, the medium was removed and the cells were washed, because the medium would interfere with the tests to determine the transfection data. The cells were then lysed in order to make a homogeneous cell protein solution. The lysate of every single well was distributed and the total quantity of protein and the luciferase activity were determined in independent assays.
The total protein quantity was determined using the BCA test with bovine serum albumin as the standard and indicated in the unit μg/well. The protein quantity measured correlates with the number of adherent, living cells still present after transfection and can therefore be used as a measure of toxicity of the respective lipoplexes [Gao and Huang, 1991]. Comparisons of the protein quantities measured with results from cytotoxicity assays that were performed [Regelin, 2000] verify this relationship. The measured values were used in the calculation of transfection efficiency (see below).
Remove the supernatant medium completely, wash the cells once with a 0.9% NaCl solution, then add 50 μl lysis buffer (ROCHE, Germany) per well. […] Use a BCA test (PIERCE, Rockford, USA) to determine the quantity of total protein per well. […] Determine the protein concentration using the calibration curve in the spectral photometer (Spectra, TECAN, Germany) by quantifying the absorption at λ=550 nm.

Regarding `CCCCCCCC/C=C\CCCCCCCC(=O)OCC(C[N+](C)(C)C)OC(=O)CCCCCCC/C=C\CCCCCCCC.[Cl-]` (stereo not shown) [DOTAP, N-[1-(2,3-dioleoyloxy)propyl]-N,N,N-trimethylammoniumchloride, reference compound], the “transfection efficiency of the standard lipid (defined as 100%)” value in the series on COS-7 cells [1] (DOTAP without DOPE, lipid/DNA 2.5:1, COS-7, external standard in each microtiter plate) is on record as 100%.

Regarding `NCCCCNCCCN` [Spermidine], the pKa result in series [2] is listed as “above 8”.

Consider `CCCCCCCCCCCCCCOCC(COC(=O)CN(C)C)OCCCCCCCCCCCCCC` (stereo not shown) [compound 110], for which the “liposome formation in mixture with DOPE” value in series [3] is “formed no liposomes”. For the same compound, in the series on COS-7 cells [1], the “relative transfection efficiency (maximum)” value was “only very low transfection efficiencies”.

As for `CCCCCCCCCCCCCCOCC(COC(=O)C[N+](C)(C)C)OCCCCCCCCCCCCCC` (stereo not shown) [compound 111], in series [3], the “liposome formation in mixture with DOPE” value is “used successfully in a mixture with DOPE to prepare liposomes”. Besides, the “relative transfection efficiency (maximum)” value with COS-7 cells [1] stood at 83%.

For `CC(C)CCC[C@@H](C)[C@H]1CC[C@H]2[C@@H]3CC=C4C[C@@H](OC(=O)CN(C)C)CC[C@]4(C)[C@H]3CC[C@]12C` [lipid 4, N-Cholesteryloxycarbonylmethyl-N,N-dimethylamine], the “liposome formation in mixture with DOPE” value in series [3] is given as “liposomes could not be prepared”. In addition, in the series on COS-7 cells [4], the “cytotoxicity of the lipoplexes (total protein quantity)” value is reported as “No cytotoxicity was observed”. Moreover, the “relative transfection efficiency (maximum)” value with COS-7 cells [1] is given as “did not result in a single transfection”.

Consider `CCCCCCCCCCCCCCOCC(COC(=O)CNCCCCNCCCN)OCCCCCCCCCCCCCC.O=CO` (stereo not shown) [lipid 115, 10-((2,3-di-tetradecyloxy)-propyloxcarbonylmethyl)-1,5,10-triazadekan formic acid salt], for which the “relative transfection efficiency (maximum)” value in the series with COS-7 cells [1] turned out to be 135%.

On to `CN(C)C` [trimethylamine], for which the pKa in series [2] is given as roughly 10.

Lipid A: the “cytotoxicity of the lipoplexes (total protein quantity)” value in the series on COS-7 cells [4] is “do not exhibit elevated cytotoxicities”. In addition, the “relative transfection efficiency (maximum)” value in the series on COS-7 cells [1] was “approx. 300%”.
